Tested on: pulmonary adenocarcinoma
Experiment: clinical course under other anticancer drugs in the lung cancer cases
Format: in vivo, human
From the text: Each case is disclosed in detail below.

| Structure (SMILES) | adverse event due to erlotinib (case 4, August 2014, on the head) | primary tumor (primary lesion) under erlotinib administration (one patient who left the ketogenic diet after the 3 month evaluation) | side effects (case 2, oral dosing from September to May 2014, no ketogenic diet) |
| --- | --- | --- | --- |
| C#Cc1cccc(Nc2ncnc3cc(OCCOC)c(OCCOC)cc23)c1 [erlotinib] | eczema | contraction | – |
| COc1cc2ncnc(Nc3ccc(F)c(Cl)c3)c2cc1OCCCN1CCOCC1 [Iressa, gefitinib] | – | – | not found |

From patent US20180214410A1, “Development of Dietary Therapy in Cancer” (Osaka University, priority 2015, published 2018)
